Experiment [1] addresses T1, human NPC1L1 (Homo sapiens, UniProt Q9UHC9, G1187D/M616T/T1073A).
T1 sequence (Q9UHC9 22-1332 isoform Q9UHC9-2 M616T/T1046A/G1160D limits assumed): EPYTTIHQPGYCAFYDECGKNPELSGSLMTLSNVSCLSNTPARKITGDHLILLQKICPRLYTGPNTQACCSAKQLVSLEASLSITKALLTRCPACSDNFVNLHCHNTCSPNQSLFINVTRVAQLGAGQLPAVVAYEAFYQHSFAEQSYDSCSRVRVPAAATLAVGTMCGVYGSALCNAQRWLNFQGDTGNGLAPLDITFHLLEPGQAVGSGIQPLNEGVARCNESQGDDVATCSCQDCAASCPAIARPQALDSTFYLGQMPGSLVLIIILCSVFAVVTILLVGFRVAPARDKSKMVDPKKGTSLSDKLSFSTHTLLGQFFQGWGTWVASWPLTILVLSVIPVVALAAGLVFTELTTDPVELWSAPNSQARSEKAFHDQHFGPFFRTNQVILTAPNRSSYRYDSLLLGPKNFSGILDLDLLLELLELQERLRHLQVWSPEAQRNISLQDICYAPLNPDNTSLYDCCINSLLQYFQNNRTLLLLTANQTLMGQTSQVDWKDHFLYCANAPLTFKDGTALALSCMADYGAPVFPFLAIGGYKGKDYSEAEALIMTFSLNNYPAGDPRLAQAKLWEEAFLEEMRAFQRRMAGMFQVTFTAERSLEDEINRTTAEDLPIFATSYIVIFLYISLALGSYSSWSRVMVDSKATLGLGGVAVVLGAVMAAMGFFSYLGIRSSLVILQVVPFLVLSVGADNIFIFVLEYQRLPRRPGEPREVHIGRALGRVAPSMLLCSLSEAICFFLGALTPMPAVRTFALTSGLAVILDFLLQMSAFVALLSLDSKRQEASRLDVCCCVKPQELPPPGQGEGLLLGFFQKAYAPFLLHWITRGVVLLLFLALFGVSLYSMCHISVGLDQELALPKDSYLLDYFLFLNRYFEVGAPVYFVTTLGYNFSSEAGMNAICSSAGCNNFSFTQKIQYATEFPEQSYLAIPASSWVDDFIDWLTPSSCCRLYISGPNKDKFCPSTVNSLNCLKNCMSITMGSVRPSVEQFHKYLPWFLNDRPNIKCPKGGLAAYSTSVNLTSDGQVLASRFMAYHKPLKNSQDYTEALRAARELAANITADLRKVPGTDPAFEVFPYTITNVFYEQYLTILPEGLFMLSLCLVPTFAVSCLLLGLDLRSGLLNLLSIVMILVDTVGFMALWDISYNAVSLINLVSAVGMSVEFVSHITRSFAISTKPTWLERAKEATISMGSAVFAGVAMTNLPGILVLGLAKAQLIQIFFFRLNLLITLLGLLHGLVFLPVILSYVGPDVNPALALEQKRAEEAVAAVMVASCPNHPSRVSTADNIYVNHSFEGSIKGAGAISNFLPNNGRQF
As to the kind of experiment: Binding to membranes of HEK-293 cells expressing recombinant human NPC1L1. Details: expressed in transfected cells; host or cells: HEK-293 cells (ATCC), transient, pCR3.1; membranes. The note with it: 0.03% sodium taurocholate and 0.05% digitonin; 1.25 mg protein/ml, 100 nM 1. How it is done: Transient expression of NPC1L1. Plasmid pCR3.1 expressing rat NPC1L1 (Genbank AY437867) or human NPC1L1 (Genbank AY437865) were prepared using standard molecular biology protocols. HEK-293 cells (ATCC) were seeded at 10×10^6 cells per T-225 flask (Corning) in DMEM containing 10% fetal calf serum, 4.5 g/L D-glucose and L-glutamine, 18 hours prior to transfection. They were transiently transfected with 25 μg of DNA using Fugene transfection reagent (Roche Biochemical) at a ratio of 6:1 Fugene:DNA. Following transfection, the cells were incubated at 37° C. and 5% CO2 for 48 hours, and then harvested using PBS based cell dissociation buffer (Gibco), pelleted at 500×g, snap frozen on dry ice, and stored at −80° C.
Membrane preparation from HEK-293 cells. Membranes were prepared by resuspending the frozen cell pellets in ten volumes of 20 mM HEPES/Tris buffer at pH 7.40 containing 8% sucrose, and sonicating the suspensions with a probe sonicator on ice until most of the cells were lysed. To isolate the membranes, the sonicates were centrifuged at 1600×g for 10 min to remove cell debris, and then the supernatants were centrifuged at 125,000×g for 1 hour to recover the membranes. These membranes were resuspended in 20 mM HEPES/Tris buffer at pH 7.40 containing 160 mM NaCl and 5% glycerol, and stored at 10-20 mg/ml protein at −80° C.
Analog structures are defined in Table 12.

Experiment [2] relates to brush border membranes from NPC1L1 knockout (−/−) mice. Kind of experiment: Binding assay with brush border membranes from NPC1L1 deficient mice. Details: species or system mouse. How it is done:
(§1) Brush border membranes vesicles were prepared from intestinal tissues of wild type and NPC1L1 knockout (−/−) mice. 15, 30 and 60 μg protein/assay of brush border membranes vesicles were incubated with 4 nM ^35S-2 in buffer A for 3 hours at 37° C. in the presence and absence of 100 μM EZE-glucuronide.
(§2) For FIG. 14A, enterocyte brush border membranes were prepared from NPC1L1 deficient male mice and same sex wild-type littermates, and tested for binding of 1. […] Membranes from wild type mice are on the left and from NPC1L1 deficient mice on the right.

Experiment [3] addresses T1, human NPC1L1. As to the kind of experiment: ^35S-2 competition binding, human NPC1L1 transfected CHO cells. Further details: expressed in transfected cells; host or cells: CHO cells (pCDNA3, XbaI/NotI fragment). As to conditions: for pKd: 5 nM ^35S-2, 2 hours at 37° C., read-out: affinity (Kd) for human recombinant NPC1L1. How it is done: Human NPC1L1 transfected CHO cells (˜600,000 cells/assay) were incubated with 5 nM ^35S-2 (˜1 million dpm/assay) in buffer A for 2 hours at 37° C. in the absence or presence of increasing concentrations of EZE-glucuronide (compound 1), compounds 2, 3, 5, 6, or 8.

For experiment [4], the target named is T2, mouse intestinal brush border membranes (Mus musculus, UniProt Q6T3U4).
T2 construct: from tissue; host or cells: mouse small-intestinal mucosa (C57BL/6J; wild-type littermates in the knockout comparison), brush border membrane vesicles
As to the kind of experiment: Binding assay with mouse (wild type) brush border membrane vesicles. How it is done: Glass fiber filters (GF/C) were obtained from Whatman.
For rhesus brush border membranes vesicles, 56 μg protein/assay were incubated with 25 nM ^3H-EZE-glucuronide in the presence of increasing concentrations of EZE-glucuronide and 2. For rat brush border membranes vesicles, 150 μg protein/assay were incubated with 50 nM ^3H-EZE-glucuronide in the presence of increasing concentrations of EZE-glucuronide and 2. For mouse brush border membranes vesicles, 20 μg protein/assay were incubated with 3 nM ^35S-2 in the presence of increasing concentrations of EZE-glucuronide and 2.
as §1, §2

Where [5] appears, read: 3 nM ^35S-2, 20 μg protein/assay, read-out: inhibition constant Ki, Mouse.

pIC50, pKd, pKi: −log10 of the molar value. Entries after “also recorded” stand apart in the source; their conditions may differ. Read-outs that look alike come from different tables or passages of the source.

A word on the pKi: it is the Ki on a negative log10 scale, so that one unit is a factor of ten. What is called pKd is the Kd on a negative log10 scale, so that one unit is a factor of ten. In general, pIC50 refers to the negative decadic logarithm of the IC50, by convention in mol/L.

For `O=C(O)C1OC(Oc2ccc(C3C(CCC(O)c4ccc(F)cc4)C(=O)N3c3ccc(F)cc3)cc2)C(O)C(O)C1O` (single isomer, unassigned) [Compound 4], at human NPC1L1 [1], the pKi is 3.89.

For the molecule `O=C(O)[C@H]1O[C@@H](Oc2ccc([C@@H]3[C@@H](CC[C@H](O)c4ccc(F)cc4)C(=O)N3c3ccc(F)cc3)cc2)[C@H](O)[C@@H](O)[C@@H]1O` [Compound 1, Ezetimibe glucuronide], the “specific binding to membranes from NPC1L1 deficient mice” value in experiment [2] (500 nM 1, 0.03% taurocholate, 0.05% digitonin) is “no detectable specific binding affinity; also recorded: virtually undetectable”. Further, the negative logarithm of the Kd (pKd) on human NPC1L1 [3] is 6.04; in experiment [4] (age-matched wild-type mice, 0.03% sodium taurocholate and 0.05% digitonin), 4.92; in experiment [4] (murine membranes, text of b482) it was 5.00. Moreover, in experiment [4], the “affinity for mouse membranes (in words)” value is “low affinity”. The pKi in experiment [4] (setting [5]) was 5.64; in experiment [4] (wild-type mice, 5 mg/ml protein, 500 nM 1, 0.03% taurocholate, 0.05% digitonin, read-out: Ki, competition of unlabeled ezetimibe glucuronide against 1), 4.92; at human NPC1L1 [1], 6.66. In addition, the pIC50 in experiment [4] (mouse, read-out: in vitro binding affinity (IC50)) was 4.92.

Regarding `CS(=O)(=O)NCC#Cc1ccc(N2C(=O)[C@H](CC[C@H](O)c3ccc(F)cc3)[C@H]2c2ccc(O[C@@H]3O[C@H](C(=O)O)[C@@H](O)[C@H](O)[C@H]3O)cc2)cc1` [Compound 2, 4-[(2S,3R)-3-[(3S)-3 (4-fluorophenyl)-3-hydroxypropyl]-1-(4-{3-[(methylsulfonyl)amino]prop-1-yn-1-yl}phenyl)-4-oxoazetidin-2-yl]phenyl β-D-glucopyranosiduronic acid], the “binding to membranes from NPC1L1 deficient mice” value in experiment [2] (4 nM ^35S-2) was “no detectable binding”. The pKd is 7.68 at human NPC1L1 [3] and 6.81 in experiment [4] (control (wild type) mouse membranes, 4 nM ^35S-2, 3 hours at 37° C.). Moreover, the “potency relative to ezetimibe glucuronide (1)” value on human NPC1L1 [3] (human recombinant NPC1L1) is reported as “approximately 50 fold”. The “affinity for mouse membranes (in words)” value in experiment [4] was “enhanced affinity”. The negative logarithm of the Ki (pKi) in experiment [4] (setting [5]) is 6.84. In addition, the “binding to wild type control membranes” value in experiment [4] (4 nM ^35S-2) is “detectable binding”.

As for `O=C(O)[C@H]1O[C@@H](Oc2ccc([C@@H]3[C@@H](CCCc4ccc(F)cc4)C(=O)N3c3ccc(F)cc3)cc2)[C@H](O)[C@@H](O)[C@@H]1O` [Compound 3], the pKi on human NPC1L1 [1] was 6.00.

For `O=C(O)[C@H]1O[C@@H](Oc2ccc([C@@H]3[C@@H](CC[C@@H](O)c4ccc(F)cc4)C(=O)N3c3ccc(F)cc3)cc2)[C@H](O)[C@@H](O)[C@@H]1O` [Compound 5], on human NPC1L1 [1], the pKi is 5.89.

In the case of `O=C(CC[C@H]1C(=O)N(c2ccc(F)cc2)[C@@H]1c1ccc(O[C@@H]2O[C@H](C(=O)O)[C@@H](O)[C@H](O)[C@H]2O)cc1)c1ccc(F)cc1` [Compound 6], the pKi on human NPC1L1 [1] was 4.85.

Take `O=C1[C@H](CC[C@H](O)c2ccc(F)cc2)[C@@H](c2ccc(O)cc2)N1c1ccc(F)cc1` [ezetimibe]: in experiment [4] (Table 11, mouse, absence of detergents), the pKd is 4.92.

The values above are taken from patent publication US7901893B2, “NPC1L1 (NPC3) and methods of identifying ligands thereof” (Merck Sharp & Dohme Corp., priority 2004, dated 2011).
